Data: patent publication US8580776B2, “Compositions and methods for treating neurodegenerating diseases” (The Board of Trustees of the University of Illinois, priority 2007, dated 2013)

Experiments:
APP = assay: Western blot of APP holo-protein and C-terminal fragments in brain extracts; type: in vivo, mice; conditions: cortical lysates, versus vehicle
Procedure: (§1) Brain tissue was homogenized in 8M urea. Total protein concentration was determined using the Bradford assay and BSA as standard. Proteins were separated on 8 or 15% SDS page gels, transferred to PVDF membrane and incubated with antibodies: anti-APP^645-694 G369 (1:4000), anti α-tubulin (T-9026, Sigma) (1:5000). Signals were detected using the ECL Kit (Amersham), band intensities calculated using Image J software (ImageJ 1.31V), and normalized to α-tubulin values.

BACE1, PSEN1, Adam10 = assay: Western blot and PCR analysis of APP processing enzymes in 9 month-old mice; type: in vivo; conditions: data not shown
Procedure: as §1
(§2) Total cytoplasmic RNA from tissues was isolated using TRIZOL reagent, (Invitrogen/GIBCO); aliquots were converted to cDNA using random hexamer primers, and mRNA levels were estimated by quantitative touchdown PCR (QPCR). PCR conditions were 35 cycles of denaturation at 94° C. for 10 s; annealing at 58-64° C. for 15 s; and extension at 72° C. for 20 s on a Corbett Rotorgene Real-Time PCR unit (Corbett, Australia). PCR was done using Taq DNA Polymerase (Invitrogen), and contained SYBR Green (SybrGreen1 10,000× concentrate, diluted 1:10,000; Molecular Probes, Eugene, Oreg.). Relative mRNA concentrations were calculated from the takeoff point of reactions using manufacturer's software, and were normalized to α-tubulin, β-actin, and glyceraldehyde-3-phosphate dehydrogenase (GDH). Melting curve analysis and agarose gel electrophoresis ensured production of single and corrected size products. The primers used were: […]

astrocyte marker GFAP = assay: Glial activation: GFAP staining of brain sections; type: in vivo, mice
Procedure: The effects of DSP4 treatment on glial activation were assessed in hippocampus and frontal cortex by staining for microglial marker Mac1 and astrocyte marker GFAP (FIG. 3). Sections from vehicle and DSP4 treated H6 mice brains were stained with antibodies directed against Mac1 to assess microglial activation (FIG. 3A-C); and GFAP to assess astrocyte activation (FIG. 3D-F). […] FIGS. 3G-3I show quantitative analysis of Mac1 (FIG. 3G-3H) and GFAP staining (FIG. 31).
Hemibrains were fixed overnight in 4% paraformaldehyde in 0.1M phosphate buffer, then overnight in 10% sucrose in 0.1M phosphate buffer, and then frozen in isopentane at −30° C. Serial sections (35 um thick) were prepared on a cryostat, and stored in cryoprotective solution (0.1M phosphate buffer: ethyleneglycol:glycerol 30:40:30) at −20° C. […] Staining was quantified using software provided by the manufacturer (Zeiss AxioVision). GFAP and Mac1 staining was quantified in 3 different areas on each of 4 serial sections for each animal (n=3 or 4 for Mac1; n=7 or 9 for GFAP staining) The data was average area stained per section (as % total area) from DSP4-treated (n=3 for Mac1; n=7 for GFAP) and vehicle-treated (n=4 for Mac1; n=9 for GFAP) mice. […]

[1] = system: insulin degrading enzyme (IDE); assay: QPCR of insulin degrading enzyme mRNA in brain samples; type: in vivo, mice; conditions: cortical samples, versus vehicle
Procedure: as §2
Comparative real time RT-PCR (or quantitative PCR, QPCR) was used to measure mRNA levels of the Aβ degrading enzymes neprilysin (Nep) and insulin degrading enzyme (IDE) in brain samples from vehicle and DSP4 treated mice (FIG. 4A). […] To assess the effects of dose, mouse neuronal N2A cells were incubated with increasing does of NA for 24 hr after which NEP activity was measured (FIG. 4D, data is mean±sd and is from n=3 samples). […]

CCN(CCCl)Cc1ccccc1Br [DSP4, N-(2-chloroethyl)-N-ethyl-2-bromobenzylamine]
levels of holoAPP (APP): no effect
BACE1, PSEN1, Adam10 mRNA, BACE1 protein, human APP mRNA levels (BACE1, PSEN1, Adam10): did not reveal any significant changes
GFAP staining, frontal cortex (astrocyte marker GFAP; low levels of staining, not shown): little effect
increase in GFAP staining, hippocampus (astrocyte marker GFAP; versus vehicle, significant): approximately 68%
levels of insulin degrading enzyme (IDE) mRNA [1]: small, non-significant reductions
